A melting point compilation (Tetko et al.; mined from patent text by program, amines drawn as free bases though some values may be those of a salt)

Row | melting point [°C] | SMILES
1 | 205 to 206 | O=C(O)C1CCN(c2nnc(NCc3ccc4c(c3)OCO4)c3cnccc23)CC1
2 | 69 to 71 | COc1nc(C(F)(F)C(F)(F)F)c(F)c(=O)n1-c1cc(OC(C)C)c(Cl)cc1F
3 | 298 to 299 | O=C(O)c1ccc2c(c1)Cc1ccccc1O2
4 | 123 to 125 | Cc1noc(NS(=O)(=O)c2cc(F)ccc2F)c1Br
5 | 183 to 185 | O=C(NCCN1CCN(c2cccc3c2OCC(CO)O3)CC1)c1ccc(F)cc1 (configuration not stated)
6 | 228 to 229 | O=C(Nc1ccc(-n2nc(C(F)(F)F)cc2C(F)(F)F)cc1)c1cc(Cl)cnc1Cl
7 | 128 | CN(C(F)F)S(=O)(=O)c1ccccc1S(N)(=O)=O
8 | 155 to 156 | COC(=O)N(C(=O)CC(O)(Cn1cncn1)c1ccc(Cl)cc1Cl)C(=O)OC (configuration not stated)
9 | 249 to 255 | CC(C)NC(=O)c1c[nH]c2ncc(-c3nn(CCCN(C)C)c4cc(Cl)cc(F)c34)nc12
10 | 60 to 64 | O=C([C@H](Cc1ccccc1)NC1CCCCC1)N1CCN(C(c2ccc(F)cc2)c2ccc(F)cc2)CC1
11 | 164 to 165 | CCCc1nc2c(N)nc3cc(-c4ccccc4)ccc3c2n1CCCON=C(C)C
12 | 125 to 126 | CN1CCN(CNc2nc(OCc3ccc(F)cc3)ncc2F)CC1
13 | 186 | O=C(O)c1ncsc1-c1cccc(I)c1
14 | 124 to 127 | CCCCCC(Cc1cnc(CCCC)n1Cc1ccccc1Cl)C(=O)O (configuration not stated)
15 | 100 to 101 | Cc1oc(-c2ccccc2)nc1COc1ccc(Cn2cc(CO)cn2)cc1
16 | 167 to 168 | Oc1ccc2c(-c3cccnc3)coc2c1
17 | 155 | CC(=O)Oc1ccc2c(c1Cl)Sc1ccccc1N2C(C)=O
18 | 164 | CNC(=S)Nc1ccc(Cl)nc1
19 | 239 to 241 | Cc1nc(N)nc(N)c1-c1cc(C#N)ccc1Cl
20 | 145 to 146 | CC1(C(O)C(c2cccc(Cl)c2)n2ccnc2)COC1 (configuration not stated)
21 | 234 to 236 | O=C(Nc1ccc(N2CCCC2)nc1)c1cc2cc(C(F)(F)F)cnc2n1Cc1cccc(F)c1
22 | 105 | CC(C)(S)C(O)(Cn1cncn1)c1ccc(F)cc1F (single isomer, unassigned; (-))
23 | 224 to 225 | Nc1cc(Oc2ccc3c(C(=O)Nc4ccc(F)c(C(F)(F)F)c4)cccc3c2)ncn1

Row | melting point [°C] | SMILES
24 | 72 to 73 | CC(C)(C)OC(=O)N1CCC(=Cc2ccc3ccccc3n2)CC1
25 | 104 to 106 | O=C(NCCSCc1ccc(Cl)cc1)c1c(Cl)cccc1Cl
26 | 108 to 110 | OC(CCN1CCC(c2ccc(F)cc2)CC1)c1ccc(Cl)cc1 (configuration not stated)
27 | 200 | Cc1cccc(Cl)c1NS(=O)(=O)c1nc(N)n(C(=O)Oc2ccccc2)n1
28 | 220 to 224 | CN(CCO)c1cc2c(=O)n(NS(C)(=O)=O)c(=O)[nH]c2cc1C(F)(F)F
29 | 143 to 144 | COc1cc(N)c2nccc(C)c2c1Oc1ccc(F)cc1
30 | 206 to 208 | Cc1nc(NC(=O)NC(=O)c2c(F)cccc2F)ccc1-c1ccccc1
31 | 234 to 235 | O=C(NCc1ccccn1)Nc1cc(N2CCCC2=O)ccn1
32 | 164 to 168 | CS(=O)(=O)Nc1cccc(Nc2nc(NCC(O)CO)c3nc[nH]c3n2)c1 (configuration not stated)
33 | 142 to 144 | Cc1cc2ncc(-c3ccsc3)nc2cc1C
34 | 194 to 196 | NC(=NO)c1cc2c(Oc3ccc(Cl)cc3)cncc2s1
35 | 117 to 120 | C#CCN(C)Cc1nc2ccc(OC(F)(F)F)cc2s1
36 | 105 to 107 | COc1ccc(/C=C/C(=O)/C=C/c2ccc(OC(F)(F)F)cc2)cc1
37 | 155 to 157 | Cc1ccc(C(=O)c2c(Br)cc(CC(=O)O)n2C)cc1
38 | > 300 | CCCn1c(=O)c2c(NC)n[nH]c2n(Cc2ccncc2)c1=O
39 | 243 to 246 | CCOc1ccccc1CNc1nc(N)n2nc(-c3ccco3)nc2n1
40 | 181 to 182 | CC(C)(C)COc1ccc(NC(=O)c2cccn2-c2ccc(F)cc2)cc1C#N
41 | 197 to 199 | COc1ccc(-c2n[nH]c3c2C(O)c2ccccc2-3)cc1OC (configuration not stated)
42 | 99 | CCc1cc2c(-c3ccccc3Cl)nc(=O)n(C)c2s1
43 | 133 | COCn1ccnc1C(O)(c1ccc(F)cc1)c1ccc(F)cc1
44 | 73 to 74 | CCN(CC)C(=O)CCCOc1ccc(Oc2ccccc2)cc1
45 | 93 to 94 | CC(=O)Nc1cccc(C#CCCn2nc3ccccc3n2)n1
46 | 130 to 132 | CCCCONC(=O)c1nc(-c2ccc(Cl)c(OC)c2F)cc(N)c1Cl

The next lines start with the compound.

Row | SMILES | melting point [°C]
47 | Cc1cc(C)cc(P(c2cc(C)cc(C)c2)c2cccc3c2-c2c(cccc2P(c2cc(C)cc(C)c2)c2cc(C)cc(C)c2)OCCCO3)c1 | 232 to 234
48 | O=C(C=Cc1ccco1)NCCCCCC(=O)NO | 151 to 152
49 | CCC(=O)OCC(OC(=O)CC)C1OC(SC)C(OC(=O)CC)C1OC(=O)CC (configuration not stated) | 62 to 63
50 | CC(=O)CN1CCc2c(c(=O)oc3cc(C)c(C)cc23)C1 | 136 to 138
51 | CCc1c(Cc2ccccc2)[nH]c(=O)[nH]c1=O | 73 to 74
52 | COc1ccc(C2(CCN3CCC(C(O)(c4ccccc4)c4ccccc4)CC3)CCN(C(=O)c3cc(OC)c(OC)c(OC)c3)C2)cc1OC (configuration not stated) | 95 to 97
53 | O=C1C[C@@H](O)C[C@H](/C=C/c2c(Cl)cc(Cl)cc2Oc2ccccc2)O1 (relative stereo) | 124 to 126
54 | COC(=O)c1cccc(-c2cccc([N+](=O)[O-])c2)c1 | 88 to 89
55 | COc1cc(C(OC)OC)cc([N+](=O)[O-])c1O | 58 to 59
56 | Cc1cccc(NC(=O)NCC(=O)N2[C@@H](c3ccccc3)CC[C@H]2c2ccccc2)c1 | 168
57 | Cc1cc(C)cc(Cc2[nH]c(=O)[nH]c(=O)c2C(C)C)c1 | 213 to 214
58 | C=C(C)C(=O)NCCNC(=O)CCl | 126 to 128
59 | Cc1c(C)c2c(c(C)c1O)CCC(C)(COc1ccc(CC(Cl)C(=O)O)cc1)O2 (configuration not stated) | 148 to 149
60 | Nc1ccc(S(=O)(=O)NCCCN2CCOCC2)cc1 | 96 to 97
61 | CCOC(=O)c1cn(C2CC2)c2c(OC(F)F)c(F)c(F)c([N+](=O)[O-])c2c1=O | 262 to 268
62 | CN1CCN2C(=O)Nc3ccc(Cl)cc3C12c1ccccc1 (configuration not stated) | 270 to 271
63 | CNc1nc(Br)cn2c(Br)cnc12 | 229
64 | COCCOCOc1ccc2cc(C(=O)CNCc3cccc(-c4ccc(Nc5ccccc5C(=O)O)cc4)c3)ccc2c1 | 72
65 | COC(=O)c1c(Cc2ccc(C(=O)NC3CCC(O)CC3)cc2)c(=O)c2ccc(Cl)cc2n1-c1ccccc1 (configuration not stated) | 151 to 152
66 | CCOC(=O)Cc1ccc(NC(=O)C(COc2cccc(Cl)c2)NS(=O)(=O)c2ccc(Cl)cc2)cc1 (racemic) | 173 to 174
67 | CC(NC1CCc2ccccc21)C(=O)O (configuration not stated) | 248 to 250
68 | COC(=O)c1cnc(N)cn1 | 229 to 231
69 | CNc1coc2cc(NS(C)(=O)=O)c(Oc3ccccc3)cc2c1=O | 192 to 193
70 | COc1cncc(OC)c1C(=O)Nc1ccc(C[C@H](NC(=O)Nc2ccccc2S(=O)(=O)c2ccccc2)C(=O)O)cc1 | 196
71 | O=C(O)C(Cl)=C(Cl)C(O)=NCCCc1ccc(Cl)cc1 | 72 to 73
72 | Cc1nnc2n1-c1ccc(C#CCN3C(=O)C(=O)c4ccccc43)cc1C(c1ccccc1Cl)=NC2 | 210 to 212

Row | SMILES | melting point [°C]
73 | C[Si](C)(C)c1c(Br)cnc2c1CCO2 | 92 to 94
74 | COc1cccc2c1CCC(COC(=O)N(c1ccccc1)c1ccccc1)C2 (configuration not stated) | 144 to 146
75 | CC(=O)/C=C1/C(=O)N(c2ccccc2)C1c1ccccc1 (configuration not stated) | 158
76 | CC(=NNc1ccc([N+](=O)[O-])cc1)c1ccccc1 | 186 to 188
77 | COc1cc(N)c(Cl)cc1C(=O)N[C@H]1CCN(CCNC(=O)N(C)C)C[C@H]1OC (relative stereo) | 206
78 | COc1ccc(-n2nc(N3CCN(C#N)CC3)c3ccccc32)cc1 | 118 to 120
79 | O=C(O)CCOc1ccccc1CNC(=O)C1Cc2ccccc2N1S(=O)(=O)c1ccc(-c2cccc(C(F)(F)F)c2)cc1 (configuration not stated) | 100
80 | O=Cc1cccc(C=Cc2ccccc2)c1 | 90
81 | CC(C(=O)O)c1ccc2c(c1)C(=O)c1ccc(Cl)cc1CS2 (configuration not stated) | 137 to 138
82 | COc1ccc(CN2C(=O)[C@@H](NC(=O)Cc3ccccc3)[C@H]2COS(=O)(=O)c2ccc(C)cc2)c(OC)c1 (relative stereo) | 109 to 110
83 | CSC1(N)N=C(N(C)C)N=C(N)N1 (configuration not stated) | 207 to 212
84 | COc1ccc(C2=C(C#N)c3ccc(OC)cc3CC2)cc1 | 151
85 | CN(CCc1ccccc1)C(=O)Cn1cc(C=CC=CC(=O)O)c2cc(OCc3ccccc3)ccc21 | 189 to 190
86 | CN(C)C[C@@H]1C(=O)N[C@H]1SC(c1ccccc1)(c1ccccc1)c1ccccc1 (relative stereo) | 129 to 131
87 | O=S(=O)(c1ccc(Cl)cc1)N1CCCC1c1ccc(Cl)cc1 (racemic) | 159
88 | O=C(Nc1ccc2ccc(Cl)nc2n1)C1CCC1 | 192
89 | Cc1ccccc1C1C(C#N)=C(c2cccs2)Nc2n[nH]cc21 (configuration not stated) | 276
90 | COc1c(O)c(C)c2c(c1OC)OC(C)(CN1CCC(c3ccccc3)CC1)C2 (configuration not stated) | 112 to 113
91 | COc1cc(C(=O)C(Br)Br)cc(OC)c1OC | 67 to 68
92 | Cn1c(COc2ccc(CC3SC(=O)NC3=O)cc2)nc2ccc(Oc3ccc(NC(=S)Nc4ccccc4)cc3)cc21 (configuration not stated) | 130 to 131
93 | CCN(C(=O)C(C)CSC(c1ccccc1)(c1ccccc1)c1ccccc1)c1cn(-c2cccnc2)nc1Cl (configuration not stated) | 64 to 66
94 | Cc1nc2c(N)nc3ccccc3c2n1CCCCNC(=O)C1CCCCC1 | 192 to 193
95 | NC(=O)c1nnsc1NCCCCCCCCCCCCCCc1ccccc1 | 79 to 81
96 | NC(CCOc1ccc(C(=NO)C(=O)NC2CN(C(C(=O)O)c3ccc(OCc4ccccc4)cc3)C2=O)cc1)C(=O)O (configuration not stated) | 164 to 168
97 | O=C(O)C(=O)c1ccc(OCC(=O)c2ccc3ccccc3c2)cc1 | 167 to 170
